Literature values in patent publication US20100168247A1, “SOLID COMPOSITES OF A CALCIUM RECEPTOR-ACTIVE COMPOUND” (TEVA PHARMACEUTICAL INDUSTRIES LTD., priority 2006, published 2010).

C[C@@H](NCCCc1cccc(C(F)(F)F)c1)c1cccc2ccccc12.Cl [cinacalcet, (R)—N-[1-(1-naphthyl)ethyl]-3-[3-(trifluoromethyl)phenyl]propan-1-amine hydrochloride]
solubility (pH 1): about 0.1 mg/ml | solubility in water (pH 7): less than 1 μg/ml
